{"source": "patent US4292317A", "about": "“1,4-Dihydro-quinoline-3-carboxylic acid derivatives, process for their preparation and compositions containing them” (Laboratorie Roger Bellon, priority 1977, dated 1981)", "type_in_all_cases": "cell-based", "key": {"Salm. typhi 0901": {"test_system": "Salm. typhi 0901", "experiment": "microbe, parasite or virus in culture", "details": "Salmonella enterica, 18 h; Table 2; Salm. typhi 0901 (Gram negative)", "experimental": "(§1) After sterilisation at 120° C., the pH was 6.8.\n(§2) The minimum inhibitory concentrations (M.I.C.) were determined by dilution of the test compounds in this mixture, the concentration ranging from 0.05 to 100 μg/cm^3 in a geometric progression with a factor of 2.\n(§3) The inoculation of the dishes was carried out by means of a multiple inoculator with 10^-3 dilutions of 18 hour old broth cultures.\n(§4) The dishes were placed in an oven at 37° C. and the readings were taken afer an incubation time of 18 hours. The M.I.C. was taken as the lowest concentration which inhibited a culture."}, "Bord. bronchis. 4.617": {"test_system": "Bord. bronchis. 4.617", "experiment": "M.I.C. in vitro, nutrient agar dilution", "details": "18 h; Table 2; Bord. bronchis. 4.617 (Gram negative); read-out: M.I.C.", "experimental": "as §1, §2, §3, §4"}, "B. subtilis": {"test_system": "B. subtilis", "experiment": "M.I.C. in vitro, nutrient agar dilution", "details": "Bacillus subtilis, 18 h; Table 2; B. subtilis (Gram positive); read-out: M.I.C.", "experimental": "as §1, §2, §3, §4"}, "Pr. morganii A.236": {"test_system": "Pr. morganii A.236", "experiment": "M.I.C. in vitro, nutrient agar dilution", "details": "Morganella morganii, 18 h; Table 2; Pr. morganii A.236 (Gram negative); read-out: M.I.C.", "experimental": "as §1, §2, §3, §4"}, "Staph. 209 P": {"test_system": "Staph. 209 P", "experiment": "M.I.C. in vitro, nutrient agar dilution", "details": "18 h; Table 2; Staph. 209 P (Gram positive); read-out: M.I.C.", "experimental": "as §1, §2, §3, §4"}, "Staph. 9.144": {"test_system": "Staph. 9.144", "experiment": "M.I.C. in vitro, nutrient agar dilution", "details": "18 h; Table 2; Staph. 9.144 (Gram positive); read-out: M.I.C.", "experimental": "as §1, §2, §3, §4"}, "S. enteritidis Danysz": {"test_system": "S. enteritidis Danysz", "experiment": "M.I.C. in vitro, nutrient agar dilution", "details": "Salmonella enterica, 18 h; Table 2; S. enteritidis Danysz (Gram negative); read-out: M.I.C.", "experimental": "as §1, §2, §3, §4"}, "Pr. mirabilis Nig": {"test_system": "Pr. mirabilis Nig", "experiment": "M.I.C. in vitro, nutrient agar dilution", "details": "Proteus mirabilis, 18 h; Table 2; Pr. mirabilis Nig (Gram negative); read-out: M.I.C.", "experimental": "as §1, §2, §3, §4"}, "Ps. aeruginosa 72.345": {"test_system": "Ps. aeruginosa 72.345", "experiment": "M.I.C. in vitro, nutrient agar dilution", "details": "Pseudomonas aeruginosa, 18 h; Table 2; Ps. aeruginosa 72.345 (Gram negative); read-out: M.I.C.", "experimental": "as §1, §2, §3, §4"}, "Providentia 0223": {"test_system": "Providentia 0223", "experiment": "M.I.C. in vitro, nutrient agar dilution", "details": "18 h; Table 2; Providentia 0223 (Gram negative); read-out: M.I.C.", "experimental": "as §1, §2, §3, §4"}, "Strepto D.M. 19": {"test_system": "Strepto D.M. 19", "experiment": "M.I.C. in vitro, nutrient agar dilution", "details": "18 h; Table 2; Strepto D.M. 19 (Gram positive); read-out: M.I.C.", "experimental": "as §1, §2, §3, §4"}, "Ps. aeruginosa A.22": {"test_system": "Ps. aeruginosa A.22", "experiment": "M.I.C. in vitro, nutrient agar dilution", "details": "Pseudomonas aeruginosa, 18 h; Table 2; Ps. aeruginosa A.22 (Gram negative); read-out: M.I.C.", "experimental": "as §1, §2, §3, §4"}, "Serratia": {"test_system": "Serratia", "experiment": "M.I.C. in vitro, nutrient agar dilution", "details": "18 h, Table 2, Berratia (Gram negative), read-out: M.I.C.", "experimental": "as §1, §2, §3, §4"}, "Klebs. pneum. 10.031": {"test_system": "Klebs. pneum. 10.031", "experiment": "M.I.C. in vitro, nutrient agar dilution", "details": "18 h; Table 2; Klebs. pneum. 10.031 (Gram negative); read-out: M.I.C.", "experimental": "as §1, §2, §3, §4"}, "Pr. vulgaris 12-53": {"test_system": "Pr. vulgaris 12-53", "experiment": "M.I.C. in vitro, nutrient agar dilution", "details": "Proteus vulgaris, 1253, 18 h; Table 2; Pr. vulgaris 12-53 (Gram negative); read-out: M.I.C.", "experimental": "as §1, §2, §3, §4"}, "Sh. sonnei I.P.S.": {"test_system": "Sh. sonnei I.P.S.", "experiment": "M.I.C. in vitro, nutrient agar dilution", "details": "Shigella sonnei, 18 h; Table 2; Sh. sonnei I.P.S. (Gram negative); read-out: M.I.C.", "experimental": "as §1, §2, §3, §4"}, "Esch. coli 95 I.S.M.": {"test_system": "Esch. coli 95 I.S.M.", "experiment": "M.I.C. in vitro, nutrient agar dilution", "details": "Escherichia coli, 18 h; Table 2; Esch. coli 95 I.S.M. (Gram negative); read-out: M.I.C.", "experimental": "as §1, §2, §3, §4"}, "Arizona 6.211": {"test_system": "Arizona 6.211", "experiment": "M.I.C. in vitro, nutrient agar dilution", "details": "18 h; Table 2; Arizona 6.211 (Gram negative); read-out: M.I.C.", "experimental": "as §1, §2, §3, §4"}, "Esch. coli 54.127 O.M.S.": {"test_system": "Esch. coli 54.127 O.M.S.", "experiment": "M.I.C. in vitro, nutrient agar dilution", "details": "Escherichia coli, 18 h; Table 2; Esch. coli 54.127 O.M.S. (Gram negative); read-out: M.I.C.", "experimental": "as §1, §2, §3, §4"}, "Strepto A 561": {"test_system": "Strepto A 561", "experiment": "M.I.C. in vitro, nutrient agar dilution", "details": "18 h; Table 2; Strepto A 561 (Gram positive)", "experimental": "as §1, §2, §3, §4"}, "Esch. coli 111 B4": {"test_system": "Esch. coli 111 B4", "experiment": "M.I.C. in vitro, nutrient agar dilution", "details": "Escherichia coli, 18 h; Table 2; Esch. coli 111 B4 (Gram negative)", "experimental": "as §1, §2, §3, §4"}, "S. oranienburg 1066": {"test_system": "S. oranienburg 1066", "experiment": "M.I.C. in vitro, nutrient agar dilution", "details": "Salmonella enterica, 18 h; Table 2; S. oranienburg 1066 (Gram negative); read-out: M.I.C.", "experimental": "as §1, §2, §3, §4"}}, "data": [{"smiles": "CCn1cc(C(=O)O)c(=O)c2cc(Cl)c(N3CCN(Cc4ccccc4)CC3)cc21", "note": "[Example 5, 7-(4-Benzylpiperazinyl)-6-chloro-1-ethyl-4-oxo-1,4-dihydro-quinoline-3-carboxylic acid]", "values": [{"measurement": "MIC", "setting": "Salm. typhi 0901", "value": 6.2, "unit": "µg/mL"}, {"measurement": "MIC", "setting": "Bord. bronchis. 4.617", "value": 12.5, "unit": "µg/mL"}, {"measurement": "MIC", "setting": "B. subtilis", "value": 0.4, "unit": "µg/mL"}, {"measurement": "MIC", "setting": "Pr. morganii A.236", "value": 3.1, "unit": "µg/mL"}, {"measurement": "MIC", "setting": "Staph. 209 P", "value": 0.2, "unit": "µg/mL"}, {"measurement": "MIC", "setting": "Staph. 9.144", "value": 0.8, "unit": "µg/mL"}, {"measurement": "MIC", "setting": "S. enteritidis Danysz", "value": 6.2, "unit": "µg/mL"}, {"measurement": "MIC", "setting": "Pr. mirabilis Nig", "value": 6.2, "unit": "µg/mL"}, {"measurement": "MIC", "setting": "Ps. aeruginosa 72.345", "value": 25, "unit": "µg/mL"}, {"measurement": "MIC", "setting": "Providentia 0223", "value": 50, "unit": "µg/mL"}, {"measurement": "MIC", "setting": "Strepto D.M. 19", "value": 6.2, "unit": "µg/mL"}, {"measurement": "MIC", "setting": "Ps. aeruginosa A.22", "value": 25, "unit": "µg/mL"}, {"measurement": "MIC", "setting": "Serratia", "value": 3.1, "unit": "µg/mL"}, {"measurement": "MIC", "setting": "Klebs. pneum. 10.031", "value": 0.4, "unit": "µg/mL"}, {"measurement": "MIC", "setting": "Pr. vulgaris 12-53", "value": 6.2, "unit": "µg/mL"}, {"measurement": "MIC", "setting": "Sh. sonnei I.P.S.", "value": 1.6, "unit": "µg/mL"}, {"measurement": "MIC", "setting": "Esch. coli 95 I.S.M.", "value": 3.1, "unit": "µg/mL"}, {"measurement": "MIC", "setting": "Arizona 6.211", "value": 3.1, "unit": "µg/mL"}, {"measurement": "MIC", "setting": "Esch. coli 54.127 O.M.S.", "value": 6.2, "unit": "µg/mL"}, {"measurement": "MIC", "setting": "Strepto A 561", "value": 6.2, "unit": "µg/mL"}, {"measurement": "MIC", "setting": "Esch. coli 111 B4", "value": 3.1, "unit": "µg/mL"}, {"measurement": "MIC", "setting": "S. oranienburg 1066", "value": 100, "unit": "µg/mL"}]}, {"smiles": "CCn1cc(C(=O)O)c(=O)c2cc(Cl)c(N3CCOCC3)cc21", "note": "[Example 7, 6-Chloro-1-ethyl-7-morpholino-4-oxo-1,4-dihydro-quinoline-3-carboxylic acid]", "values": [{"measurement": "MIC", "setting": "Salm. typhi 0901", "value": 3.1, "unit": "µg/mL"}, {"measurement": "MIC", "setting": "Bord. bronchis. 4.617", "value": 12.5, "unit": "µg/mL"}, {"measurement": "MIC", "setting": "B. subtilis", "value": 0.2, "unit": "µg/mL"}, {"measurement": "MIC", "setting": "Pr. morganii A.236", "value": 0.8, "unit": "µg/mL"}, {"measurement": "MIC", "setting": "Staph. 209 P", "value": 0.2, "unit": "µg/mL"}, {"measurement": "MIC", "setting": "Staph. 9.144", "value": 0.4, "unit": "µg/mL"}, {"measurement": "MIC", "setting": "S. enteritidis Danysz", "value": 3.1, "unit": "µg/mL"}, {"measurement": "MIC", "setting": "Pr. mirabilis Nig", "value": 1.6, "unit": "µg/mL"}, {"measurement": "MIC", "setting": "Ps. aeruginosa 72.345", "value": 6.2, "unit": "µg/mL"}, {"measurement": "MIC", "setting": "Providentia 0223", "value": "> 100", "unit": "µg/mL"}, {"measurement": "MIC", "setting": "Strepto D.M. 19", "value": 50, "unit": "µg/mL"}, {"measurement": "MIC", "setting": "Ps. aeruginosa A.22", "value": 12.5, "unit": "µg/mL"}, {"measurement": "MIC", "setting": "Serratia", "value": 0.8, "unit": "µg/mL"}, {"measurement": "MIC", "setting": "Klebs. pneum. 10.031", "value": 0.2, "unit": "µg/mL"}, {"measurement": "MIC", "setting": "Pr. vulgaris 12-53", "value": 0.8, "unit": "µg/mL"}, {"measurement": "MIC", "setting": "Sh. sonnei I.P.S.", "value": 0.8, "unit": "µg/mL"}, {"measurement": "MIC", "setting": "Esch. coli 95 I.S.M.", "value": 1.6, "unit": "µg/mL"}, {"measurement": "MIC", "setting": "Arizona 6.211", "value": 1.6, "unit": "µg/mL"}, {"measurement": "MIC", "setting": "Esch. coli 54.127 O.M.S.", "value": 3.1, "unit": "µg/mL"}, {"measurement": "MIC", "setting": "Strepto A 561", "value": 100, "unit": "µg/mL"}, {"measurement": "MIC", "setting": "Esch. coli 111 B4", "value": 3.1, "unit": "µg/mL"}, {"measurement": "MIC", "setting": "S. oranienburg 1066", "value": "> 100", "unit": "µg/mL"}]}]}
